Assay results taken from patent US9861647B2 (Prelief Inc., priority 2007, dated 2018).

Legend:
[1] = tested on: inflammatory cells in nasal lavage; test: Nasal lavage cell counts and differentials after nasal ragweed challenge; type: in vivo, Beagle dogs
Procedure: Ragweed sensitized beagle dogs (n=5) with preexisiting nasal and airway allergic responses were utilized in the animal study described in this Example. Dogs served as their own control and initially were treated with vehicle (sterile water) and then rested for 5 weeks prior to receiving the test compound. […] Based on the aerosol testing only 1.6 mg/dog could be delivered by inhalation during a 15 minute exposure (20 mg/ml solution). In addition, each dog received twice daily an intranasal instillation of 30 mg (2×375 μl of 20 mg/ml in each nostril) given within 30 minutes after the end of the inhalation exposures.
FIG. 1 summarizes the study design for characterizing the effects of CGP on rhinitis symptoms in ragweed sensitized Beagle dogs. The baseline nasal cavity volume was first measured 3 days (day −3) before each of the vehicle and CGP treatments. The dogs were treated with vehicle or CGP (day 0) twice daily with the target dosage described above. […]
Total nasal cells were determined using an automatic cell counter. […] At least four hundred inflammatory cells (or less if applicable) were counted and the percentage of specific cell types determined for each animal (slides in duplicates, 200 cells per slide). […]
Changes in nasal cavity volume or mediator levels were assessed by two way analysis of variance (ANOVA) with Bonferroni post-test. […]

[2] = tested on: human subject having a respiratory condition; test: Application of CGP (forced nasal lavage, spray/mist) to a human subject with post nasal drip, nasal obstruction and chronic cough; type: in vivo; conditions: one subject
From the text: CGP was incorporated into samples of a lavage or a spray product at varying concentrations, along with different sweetening/moisturizing components (sorbitol, glycerin) at varying levels (0.5% to 7.5% by weight), appropriate food/drug grade fungistats and bacteristats (methyl paraben and benzalkonium chloride), and light flavorings of several types (peppermint, spearmint and orange) in some iterations.
A first human subject for laboratory/home trials was a person in good general health. […] The subject has experienced a decades-long post nasal drip (PND) as an adult, nasal obstruction (mucus, septum). The subject has experienced coughs that have been of weeks-long and, on occasion, months-long duration, following seasonal flu or colds. The subject has experienced chronic throat-clearing from PND and chronic cough even when not post-respiratory illness, which they ascribe to bronchitis. […] The subject breathed almost exclusively through mouth as a child because of nasal obstruction. The subject breathes through both nose and mouth as an adult, with breathing through nose occasionally mildly problematic, requiring active conscious engagement, although the subject was never “short of breath” in terms of lung capacity, etc.
The subject performed forced nasal lavage once daily for about two weeks. The forced nasal lavage was conducted intranasally over skin and normally in a shower. An aqueous solution or suspension of CGP at various concentration, such as about 7.5%, 3.75%, 2.5%, 2%, 1.5% by weight of dry CGP, was forced into one nostril and out of the other nostril using a closed plastic bottle with an internal stem feed. This procedure was repeated for each side of the nostrils. Some product was swallowed via nasal route and there was approx. 2 oz. fluid per nostril.
The subject applied CGP into their nostrils in a spray or a mist. A closed small plastic bottle with internal stem feed constructed to deliver fluid contents as mist was used. Typically, one application was performed in the morning. Each application consisted of two sprays per nostril, alternating sides, with full simultaneous deep breath inhalation or inspiration to draw the product up the nose and into the airway passages. The spray was also, on occasion, applied directly through the mouth to the throat with 1 or 2 sprays per application. An average spray delivery contained about 200 mg of a formulation of CGP per squeeze. The formulation contained about 2% to about 3.75% by weight of dry CGP.
In addition to the routine application of CGP to prevent or control symptoms associated with the respiratory system, the subject has also used CGP to relieve symptoms during an episode of a condition of airway/upper respiratory tract. […] At about 10:45 A.M., the subject applied a double-dose of NasoCell (1.75% CGP by weight) via nasal inhalation in each nostril. At about 11:30 AM, the subject's symptoms were much improved. The subject then self-administered another dose of NasoCell in each nostril. […] The subject had no trouble breathing while they were eating during lunch. […] The subject's throat was cleared of any obstructions and breathing sounds, and was wide open. The subject's nasal passages were reopened and voice cleared from an earlier morning huskiness, characteristic of a post nasal drip condition. It is noteworthy that this subject observed that after some weeks of usage, much reduced usage was required to “maintain”, and that this included the skipping of usage altogether, some days.

[3] = forced nasal lavage or spray/mist

## calcium glycerophosphate
[1]; following treatment, not detectable following vehicle
  levels of macrophages in nasal lavage: negligible levels
[1]; pretreatment vs vehicle, Days 1 and 2 after nasal RW challenge
  number of inflammatory cells in the nasal lavage: did tend to reduce the lung inflammatory cells compared to vehicle treatment, although none of the endpoints reached statistical significance
[2]; [3]
  coughing: complete cessation of coughing
  reduction of post nasal drip: 95-98%
[2]; forced nasal lavage, 1.5-7.5% by weight CGP, about 10-20 minutes after the lavage
  decreased drainage: 90%
[2]; forced nasal lavage, about 20-60 minutes after the lavage
  throat-clearing diminished compared with prior state: about 90%
[2]; forced nasal lavage, about 1 hr to 12/24 hr after the lavage
  symptoms (drip, cough, breathing): no drip, no cough, and easy open breathing
[2]; nasal spray/mist, about 2% to 3.75% by weight CGP, two sprays per nostril
  onset of relieving effects: almost instantaneously upon application
[2]; nasal spray/mist, about 2% to 3.75% by weight CGP
  duration of benefits post application: about four to eight hours
[2]; single spray per nostril at bedtime
  night breathing: appeared to produce better night breathing
